Measurements as given in US20180064682A1, “INHIBITORS OF LEUKOTRIENE-MEDIATED ACTIVITY FOR TREATING SIDE EFFECTS OF STATIN THERAPY” (Yeda Research and Development Co. Ltd., priority 2014, published 2018).

Key:
[1] = test system: HMGB1 released from B16 cells; assay: Release of necrosis marker HMGB1 to culture medium, immunoblot, B16 cells; assay type: cell-based, mouse; conditions: Brefeldin A 1.3 μg/ml, 24 hours, MK571
Procedure: (§1) FIGS. 8A-8C. Inhibitors of the MGST2-LTC4 Pathway Attenuate ER Stress-triggered Cell Death. (FIG. 8A) Human WISH cells were treated with vehicle (Control) or Brefeldin A (0.66 μg/ml, 48 hours) in the absence or presence of BAY-cysLT2. The plates were then stained with Crystal violet. Relative viability of the cells is shown. N=4, ***p<0.001. (FIG. 8B) Mouse B16 cells were treated with vehicle (Control) or tunicamycin (1 μg/ml, 24 hours) (Tm), thapsigargin (50 nM, 24 hours) (Tg) or Brefeldin A (BfA […], 24 hours) in the presence or absence of MK571 for 24 h. The plates were stained with Crystal violet. Relative viability of the cells is shown. N=4, ***p<0.001. (FIG. 8C) Immunoblot of the necrosis marker HMGB1 released to the culture media of B16 cells treated with vehicle (Control) or Brefeldin A (1.3 μg/ml, 24 hours) in the presence or absence of MK571. Ponceau staining serves as loading control.
(§2) On top of its activity as an MRP1 inhibitor, MK571 is a potent selective CysLTR1 antagonist.

[2] = test system: NOX4 in human WISH cells; assay: NOX4 levels by immunoblotting, WISH cells under ER stress; assay type: cell-based; conditions: Brefeldin A 0.66 μg/ml, 24 hours
Procedure: (§3) FIGS. 6A-6C. ER stress-triggered NADPH oxidase 4 (NOX4) expression, translocation towards the nuclei and DNA oxidation are mediated by the MGST2-LTC4 pathway. (FIG. 6A) Human WISH cells were treated with vehicle (Control) or Brefeldin A (0.66 μg/ml, 24 hours) in the absence or presence of BAY-u9773, MK571 or Montelukast. NOX4 levels were evaluated by immunoblotting. (FIG. 6B) Mouse B16 cells were treated with vehicle (Control) or tunicamycin (0.5 μg/ml, 24 hours) in the absence or presence of Montelukast, BAY-u9773 or BAY-cysLT2. NOX4 levels were evaluated by immunoblotting. (FIG. 6C) Human HaCaT pre-keratinocytes were treated with vehicle (Control) or Brefeldin A (48 hours) in the absence or presence of pranlukast or BAY-u9773, then immunostained with anti 8-OHdG. Quantitative analysis of 8-OHdG fluorescence intensity is shown. N=3 *p<0.05, ****p<0.001.
Several ligands of G-protein coupled receptors to which CysLTR1 and CysLTR2 belong elicit oxidative stress through receptor-mediated activation of NOX. Human WISH cells and Mouse B16 cells were treated with vehicle (Control) or Brefeldin A (0.66 μg/ml, 24 hours) in the absence or presence of BAY-u9773, MK571 or Montelukast and NOX4 levels were evaluated by immunoblotting.

[3] = test system: Mouse B16 cells; assay: ER stress-triggered cell death, Crystal violet viability, B16 cells; assay type: cell-based; conditions: 24 hours, MK571 10 μM
Procedure: as §1, §2

[4] = test system: Human HaCaT pre-keratinocytes; assay: ER stress-triggered oxidative DNA damage, anti 8-OHdG immunostaining, HaCaT cells; assay type: cell-based; conditions: Brefeldin A 48 hours
Procedure: as §3
Accumulation of nuclear ROS in response to ER stress will result in oxidative DNA damage. To test whether the MGST2-LTC4 pathway is involved in ER stress-triggered DNA damage, the formation of the oxidized DNA derivative 8-hydroxy-2′dexoxyguanosine (8-OHdG) was measured. […] Altogether, the ER stress-triggered DNA damage was mediated to a very large extent by the MGST2-LTC4 pathway.

[5] = test system: Human HaCaT pre-keratinocytes; assay: ER stress-triggered ROS accumulation, DCFH-DA staining, HaCaT cells treated with Brefeldin A; assay type: cell-based; conditions: Brefeldin A 0.33 μg/ml, 24 hours, reversan 20 μM
Excerpt: FIGS. 4A-4E. ER stress-triggered ROS accumulation is mediated by MGST2-derived LTC4. (4A) Mouse B16 cells were transfected with control siRNA or MGST2 siRNA, then treated with tunicamycin and stained with the superoxide anion indicator dihydroethidium (DHE). Quantitation of relative DHE fluorescence intensity is presented as determined by the ImageJ program. N=3, ***p<0.001. (FIG. 4B) Mouse B16 cells were transfected with control siRNA or MGST2 siRNA, then treated with tunicamycin and stained with the superoxide anion indicator dihydroethidium (DHE). Silencing efficiency of mouse MGST2 mRNA as determined by qRT-PCR on replicate samples is shown. N=3, ***p<0.001. (FIG. 4C) Human HaCaT pre-keratinocytes were treated with Brefeldin A (0.33 μg/ml, 24 hours) with or without the MRP1 inhibitor reversan (20 μM) or the LTC4 antagonists pranlukast, BAY-cysLT2 or BAY-u9773. The cells were then stained with the ROS indicator DCFH-DA. Quantitative analysis of relative DCF fluorescence intensity is presented. […] N=3, * p<0.05. (FIG. 4D) Immunoblotting with anti FLAG tag of HEK 293T cell extract following transfection with either control pcDNA4 vector or pcMGST2-FLAG. (FIG. 4E) HEK 293T cells were either mock-transfected (Control), transfected with pcDNA4 or with pcMGST2-FLAG and then stained with DHE. Quantitative analysis of relative DHE fluorescence intensity is presented N=4, **p<0.01.
ER stress and oxidative stress are tightly associated, as ER stress triggers oxidative stress and vice versa. Therefore, a test for determining whether MGST2 and its product LTC4 are involved in ER stress-triggered ROS accumulation was performed. As previously reported, ER stress triggered by tunicamycin leads to accumulation of ROS, as detected by staining with the superoxide anion indicator dihydroethidium (DHE). […] MGST2 consumes GSH by coupling it not only to LTA4 but also to other substrates. […] Triggering ER stress by Brefeldin A generated ROS, as measured by the indicator dichloro-dihydro-fluorescein diacetate (DCFH-DA, FIGS. 4C, 5). […]

[6] = test system: Human WISH cells; assay: Tunicamycin-induced cell death, Neutral red viability, WISH cells; assay type: cell-based; conditions: tunicamycin 1 μg/ml, 48 hours, BAY-u9773 80 nM
Procedure: (§4) FIGS. 7A-7G. The MGST2-LTC4 pathway mediates ER stress-triggered cell death. (FIG. 7A) Mouse B16 cells were transfected with control siRNA (siControl) or MGST2-specific siRNA (siMGST2), treated with vehicle or tunicamycin (1 μg/ml, 24 hours) (Tm) and then stained with Crystal violet. Relative viability of the cells is shown. N=3 ***p<0.0001. (FIG. 7B) Mouse B16 cells were transfected with control siRNA (siControl) or MGST2-specific siRNA (siMGST2), treated with vehicle or tunicamycin (Tm) and then stained with Crystal violet. Silencing efficiency of mouse MGST2 mRNA as determined by qRT-PCR on replicate samples is shown. N=3, ***p<0.001. (FIG. 7C) HEK 293T cells were mock-transfected, transfected with pcDNA4 or with pcMGST2-FLAG, treated with vehicle (Control) or Brefeldin A (0.66 μg/ml, 24 hours) and then stained with Crystal violet. Relative viability of the cells is shown. N=3 ****p<0.0001. (FIG. 7D) Human HaCaT pre-keratinocytes were treated with vehicle (Control) or Brefeldin A (BfA, 1.33 μg/ml, 48 hours) in the absence or presence of BAY-u9773 (80 nM). The plates were then stained with Crystal violet. Relative viability of the cells is shown. N=4 ***p<0.0001. (FIG. 7E) Human WISH cells were treated either with vehicle (Control) or tunicamycin (1 μg/ml, 48 hours) in the absence or presence of BAY-u9773 (80 nM) and then stained with Neutral red. Relative viability of the cells is shown. […]

[7] = test system: differentiated mouse C2C12 myocytes; assay: Simvastatin-triggered cell death of differentiated C2C12 myocytes, Crystal violet; assay type: cell-based; conditions: for cell death triggered by simvastatin (relative cell viability): 10 uM simvastatin, 5 days, pranlukast 10 μM, BAY-cysLT2 10 μM, BAY-u9773 1 μM
Procedure: FIGS. 11A-11B. BAY-cysLT2 and BAY-u9773 but not pranlukast attenuate simvastatin-triggered cell death of differentiated C2C12 mouse myocytes. (FIG. 11A) Survival of mouse C2C12 cells following differentiation into myocytes, treated with 10 uM simvastatin for 5 days in the presence of vehicle, pranlukast (10 μM), BAY-cysLT2 (10 μM), BAY-u9773 (1 μM) or Mevalonate (71.4 μM). The plates were then stained with Crystal violet and the relative cell viability was determined. (FIG. 11B) Quantification of the staining intensity is shown.
FIGS. 12A-12B. Zileuton but not montelukast attenuates simvastatin-triggered death of differentiated C2C12 mouse myocytes. (FIG. 12A) C2C12 immortalized mouse myoblasts (15,000 cells/100 ul DMEM) were seeded for 24 and then differentiated for 3 days (initiated by serum free medium supplemented with 1×ITS medium) and then treated with […] Simvastatin with or without montelukast (2 μM), zileuton (10 μM) or mevalonate (71.4 μM). After 4 days the cells were stained with crystal violet and photographed under light microscope. (FIG. 12B) Quantification of the staining intensity is shown.
To study the role of the MGST2-LTC4 pathway in statin-triggered cell death, differentiated mouse C2C12 myocytes in 96 well plates were treated with 10 uM simvastatin or vehicle in the presence of either vehicle, BAY-cysLT2 (10 μM) or BAY-u9773 (1 μM) or sodium mevalonate for 5 days.
To study the role of the MGST2-LTC4 pathway in statin-triggered cell death, differentiated mouse C2C12 myocytes in 96 well plates were treated with 20 uM simvastatin or vehicle in the presence of either vehicle, zileuton (10 μM) or sodium mevalonate for 4 days.

[8] = test system: Human HaCaT pre-keratinocytes; assay: ER stress-triggered cell death, Crystal violet viability, HaCaT cells; assay type: cell-based
Procedure: as §4

[9] = test system: Human WISH cells; assay: Brefeldin A-triggered cell death, Crystal violet viability, WISH cells; assay type: cell-based; conditions: Brefeldin A 0.66 μg/ml, 48 hours, BAY-cysLT2 5 μM
Procedure: as §4

## CN(C)C(=O)CCSC(SCCC(=O)O)c1cccc(/C=C/c2ccc3ccc(Cl)cc3n2)c1 (centres unmarked) [MK571]
[1]
  secretion of HMGB1 to the culture medium (cellular necrosis): reduced secretion of HMGB1
[2]
  NOX4 expression upon ER stress: greatly inhibited NOX4 expression
[3]; Brefeldin A
  cell death triggered by Brefeldin A (relative viability): significantly attenuated cell death
[3]; thapsigargin 50 nM
  cell death triggered by thapsigargin (relative viability): significantly attenuated cell death
[3]; tunicamycin 1 μg/ml
  cell death triggered by tunicamycin (relative viability): significantly attenuated cell death

## CCCCC/C=C\C\C=C/C=C/C=C/[C@@H](Sc1ccc(C(=O)O)cc1)[C@@H](O)CCCC(=O)O [BAY-u9773]
[4]
  formation of nuclear 8-OHdG (oxidative DNA damage): even more effective in attenuating the DNA damage
[5]
  ROS accumulation (relative DCF fluorescence intensity): significantly inhibited ROS accumulation
[2]
  NOX4 expression upon ER stress: greatly inhibited NOX4 expression
[6]
  tunicamycin-induced death (relative viability): significantly attenuated tunicamycin-induced death
[7]
  cell death triggered by simvastatin (relative cell viability): attenuated cell death
[8]; Brefeldin A 1.33 μg/ml, 48 hours, BAY-u9773 80 nM
  ER stress triggered cell death (relative viability): attenuated ER stress triggered cell death

## CC(c1cc2ccccc2s1)N(O)C(N)=O (centres unmarked) [zileuton]
[7]; 20 uM simvastatin, 4 days, zileuton 10 μM, montelukast 2 μM
  cell death triggered by simvastatin (staining intensity): attenuated cell death
[8]; MG262 50 nM, 24 hours, zileuton 10 μM
  death triggered by proteasome inhibitor MG262 (relative viability): significantly protected HaCaT keratinocytes from death

## O=C(O)c1ccc(OCCCc2ccc(OCCCCOc3ccccc3)cc2)c(C(=O)NC2CCCC(C(=O)O)C2)c1 (centres unmarked) [BAY-cysLT2]
[5]
  ROS accumulation (relative DCF fluorescence intensity): significantly inhibited ROS accumulation
[7]
  cell death triggered by simvastatin (relative cell viability): attenuated cell death
[9]
  Brefeldin A-triggered death (relative viability): equally protected these cells from Brefeldin A

## O=C(NCCCN1CCOCC1)c1cnn2c(-c3ccccc3)cc(-c3ccccc3)nc12 [reversan]
[5]
  ROS accumulation (relative DCF fluorescence intensity): small but statistically insignificant inhibitory effect on ROS accumulation
